Measured values reported in PubChem BioAssay (NCI).
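Interpolation was linear, between the two tested concentrations surrounding the appropriate level; five concentrations were tested over 48 hours in 96-well plates. The concentration for 50% growth inhibition is given as GI50. At the TGI there is no net growth.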

Tests used:
Assay in all cases: NCI tumour cell line growth inhibition, 48 h
PC-3 prostate = tested on: PC-3 prostate
SNB-19 CNS = tested on: SNB-19 CNS
EKVX NSCLC = tested on: EKVX NSCLC
MOLT-4 leukemia = tested on: MOLT-4 leukemia
SF-268 CNS = tested on: SF-268 CNS
T-47D breast = tested on: T-47D breast
RPMI-8226 leukemia = tested on: RPMI-8226 leukemia
SN12C renal = tested on: SN12C renal
HT29 colon = tested on: HT29 colon
LOX IMVI melanoma = tested on: LOX IMVI melanoma

| SMILES | GI50 (PC-3 prostate) [µM] | TGI (PC-3 prostate) [µM] | GI50 (SNB-19 CNS) [µM] | TGI (SNB-19 CNS) [µM] | GI50 (EKVX NSCLC) [µM] | TGI (EKVX NSCLC) [µM] | GI50 (MOLT-4 leukemia) [µM] | TGI (MOLT-4 leukemia) [µM] | GI50 (SF-268 CNS) [µM] | TGI (SF-268 CNS) [µM] | GI50 (T-47D breast) [µM] | TGI (T-47D breast) [µM] | GI50 (RPMI-8226 leukemia) [µM] | TGI (RPMI-8226 leukemia) [µM] | GI50 (SN12C renal) [µM] | TGI (SN12C renal) [µM] | GI50 (HT29 colon) [µM] | TGI (HT29 colon) [µM] | GI50 (LOX IMVI melanoma) [µM] | TGI (LOX IMVI melanoma) [µM] |
| --- | --- | --- | --- | --- | --- | --- | --- | --- | --- | --- | --- | --- | --- | --- | --- | --- | --- | --- | --- | --- |
| CC(=O)O[C@H](C[C@H](C(C)C)N(C)C(=O)[C@@H](NC(=O)[C@H]1CCCCN1C)C(C)C)c1nc(C(=O)N[C@@H](Cc2ccccc2)C[C@H](C)C(=O)O)c(CCOCc2ccccc2)s1 | < 0.001 | > 10 | < 0.001 | > 10 | < 0.001 | > 10 | < 0.001 | > 10 | < 0.001 | > 10 | < 0.001 | > 10 | < 0.001 | > 10 | < 0.001 | > 10 | < 0.001 | > 10 | < 0.001 | > 10 |
| O=C(Nc1ccc(-c2ccccc2)cc1)C1CCN(S(=O)(=O)c2ccccc2Cl)CC1 | 38 | > 100 | > 100 | > 100 | 73.5 | > 100 | > 100 | > 100 | 39 | > 100 | > 100 | > 100 | 42 | > 100 | 26.9 | 90.2 | > 100 | > 100 | 27.7 | > 100 |
| CCn1c(CO)nn(-c2cc(O[C@@H](C)C(F)(F)F)c(C(=O)Nc3c(F)cccc3Cl)cc2F)c1=O | < 0.01 | > 100 | < 0.01 | > 100 | 8.47 | > 100 | < 0.01 | > 100 | 0.196 | > 100 | 0.0723 | 86.2 | < 0.01 | > 62.2 | 0.081 | > 100 | < 0.01 | > 100 | < 0.01 |  |
| Cc1cc(I)cc(CN(C)CCCN2CCOCC2)c1O | 42.9 | > 100 | 67.7 | > 100 | 72.4 | > 100 | 30.2 | > 100 | 38.3 | > 100 | 29.1 | > 100 | 17.8 | 46 | > 100 | > 100 | 16.5 | 33.6 | 29.8 | > 100 |
| [Au+].[Au+].[Au+].[c-]1nccn1Cc1ccccc1.[c-]1nccn1Cc1ccccc1.[c-]1nccn1Cc1ccccc1 | 17.4 | 34.4 | 23.1 | 59 | 11.6 | 38.8 | 7.96 | > 100 | 3.35 | 15.3 | 7.42 | 36.8 | 3.9 | > 100 | 8.42 | 55.3 | 16.9 | > 77.4 | 1.56 | 3.08 |
| CC(C)OC(=O)NNc1cc(Cl)ccc1Cl |  | > 100 |  | > 100 |  | > 100 |  | > 100 |  | > 100 |  | > 100 |  | > 100 |  | > 100 |  | > 100 |  | > 100 |
| COc1ccc2c(O)cc3c(c2c1)[C@H](CCl)CN3C(=O)c1cc2cc(NC(=O)CCN3CCOCC3)ccc2[se]1 | < 0.001 | 0.0699 | < 0.001 | 0.233 | < 0.001 | 0.00471 | < 0.001 | > 3.34 | < 0.001 | 0.0946 | < 0.001 |  | 0.00149 | 0.0263 | < 0.001 | 0.0334 | < 0.001 | > 3.24 | < 0.001 | 0.0101 |
| Oc1cn(-c2ccc(Cl)cc2)nc1-c1n[nH]c(=S)n1C1CCCCC1 | 11.4 | > 66.9 | 0.416 | > 44.8 | 15.5 | > 100 | 0.5 | > 29 | 13.7 | > 100 | 6.62 | > 100 | 0.248 | 30.9 | 2.43 | > 100 | 30.5 | > 100 | 0.451 | > 100 |
| COc1ccc2c(c1)C(C)Cc1c(ncnc1-n1c(C)nc3ccccc31)N2C (stereo not drawn) | 3.25 | 27.3 | 4.45 | 23.1 | 3.94 | 21.8 | 2.39 | 12.5 | 11.5 | 39.7 | 6.5 | 49.9 | 3.96 | 24.3 | 13 | 77.6 | 2.81 | 8.94 | 4.42 | 23.9 |
| Cc1c(C2=C(Br)C(=O)N(C)C2=O)c(=O)n(C)c(=O)n1C |  | 49.6 |  | > 100 |  | 41.8 |  | 55.1 |  | > 100 |  | 42.6 |  | 46.3 |  | > 100 |  | 42.2 |  | 32.3 |
| Nc1nc(SN=Nc2ccc(S(N)(=O)=O)cc2)c2[nH]cnc2n1 | 1.64 | > 100 | > 78.6 | > 100 | 0.714 | > 100 | 0.32 | 6.93 | 0.563 | > 100 | 0.536 | > 100 | 0.283 | 3.33 | 0.698 | > 100 | 0.79 | > 100 | 0.219 | 12.6 |
| O=C(/C=C/c1cc(CN2CCOCC2)c(O)c2ncccc12)c1cc(CN2CCOCC2)c(O)c2ncccc12 | 0.05 | > 100 | 0.0482 | > 100 | 0.077 | > 100 | 0.0529 | > 100 | 0.0469 | > 100 | 0.0574 | 2.48 | 0.0222 | > 100 | 0.0673 | > 100 | 0.0695 | > 100 | 0.0394 | > 100 |
| CC(C)CNC(=O)O |  | > 100 |  | > 100 |  | > 100 |  | > 100 |  | > 100 |  | > 100 |  | > 100 |  | > 100 |  | > 100 |  | > 100 |
